# Data from patent publication US7777038B2, “Carbostyril compound” (Otsuka Pharmaceutical Co., Ltd., priority 2004, dated 2010).
# Tested on: human Trefoil Factor 2 (hTFF2) gene
# Test: hTFF2 gene reporter assay (luciferase) using pGL3-hTFF2pro•pWL-neo/MKN-45 #6-2 cell line
# Format: cell-based
# Conditions: test compound concentration 10^−6 M; 24 hours culture; luciferase activity as control % of dimethylsulfoxide-added wells (100%)
# Method: Transcription promoting activity on human Trefoil Factor 2 (hTFF2) gene of test compounds was evaluated by means of an hTFF2 gene reporter assay.
# (1) Preparation of hTFF2 Gene Reporter Vector pGL3-hTFF2pro
# DNA was extracted from HeLa cells (CCL-2, DAINIPPON PHARMACEUTICAL CO., LTD.) using a deoxyribonucleic acid (DNA) extraction kit (DNeasy™ Tissue Kit, manufactured by QIAGEN). The hTFF2 promoter region was amplified using the extracted DNA as a template by means of the polymerase chain reaction (PCR). The oligomers 5′-[…]-3′ and 5′-[…]-3′ were selected as PCR primers to be amplified, based on the report by Beck et al. (Beck S., Sommer P., Blin N., Gott P., 5′-flanking motifs control cell-specific expression of trefoil factor genes (TFF), Int. J. Mol. Med. 2(3), 353-361 (1998)). Platinum® Pfx DNA polymerase was used as DNA polymerase. The PCR was performed under the conditions of denaturing for 30 seconds at 95° C., annealing for 30 seconds at 55° C. and extending for 75 seconds at 68° C., and the procedures were repeated for 32 cycles.
# The PCR products were separated and purified by 1% agarose gel electrophoresis, and cloned to a pCR-BluntII-TOPO vector attached to a cloning kit (Zero Blunt® TOPO® PCR Cloning Kit, manufactured by Invitrogen Corporation). The produced plasmid pCR-Blunt-TFF2pro was introduced into E. coli for transformation (TOP 10 Ultracomp™ Cells, manufactured by Invitrogen Corporation), and transformant strain pCR-Blunt-TFF2pro/TOP10 was selectively cultured in LB agar medium containing 30 μg/ml of Zeocin (Zeocin, manufactured by Invitrogen Corporation). The pCR-Blunt-TFF2pro/TOP10 was subjected to shaking culture in 50 ml of LB medium containing 30 μg/ml of Zeocin at 37° C. over night, and a plasmid was prepared using a plasmid preparation kit (Concert™ High Purity Midiprep System, manufactured by GIBCO BRL).
# The nucleotide sequence of the PCR product cloned to the plasmid pCR-Blunt-TFF2pro was determined. The determined nucleotide sequence was compared with the counterpart of hTFF2 promoter region reported in a gene bank (GenBank accession AB038162). The nucleotide sequence of the MluI-HindIII region cloned in pCR-Blunt-TFF2pro was identical to GenBank accession AB038162 (FIG. 1).
# The underlined portions indicate the recognition sequence (ACGCGT) of the restriction enzyme MluI and the recognition sequence (AAGCTT) of the restriction enzyme HindIII. The nucleotide sequences of the MluI-HindIII region are identical between the hTFF2 promoter region reported in GenBank and the PCR product cloned to the plasmid pCR-Blunt-TFF2pro. […]
row,SMILES,TFF2 Production Promoting Activity
1,"CCCCOc1ccc(CC2SC(=O)NC2=O)c2c1N(Cc1ccccc1)C(=O)CC2 (centres unmarked) [Example 32, 5-(1-benzyl-8-butoxy-2-oxo-1,2,3,4-tetrahydroquinolin-5-ylmethyl)thiazolidine-2,4-dione]",+ (a TFF2 production promoting activity of 300% or higher at a test compound concentration of 10^−6 M)
2,"COc1ccc(CC2SC(=O)NC2=O)c2c1N(Cc1ccc(NC(=O)c3ccc4ccccc4c3)cc1)C(=O)CC2 (centres unmarked) [Example 22, 5-{8-methoxy-1-[4-(2-naphthoylamino)benzyl]-2-oxo-1,2,3,4-tetrahydroquinolin-5-ylmethyl}thiazolidine-2,4-dione]",++ (a TFF2 production promoting activity of 1000% or higher at a test compound concentration of 10^−6 M)

# Tested on: not given
# Test: not given
# Conditions: not given
row,SMILES,melting point
1,"O=C1NC(=O)C(Cc2ccc(O)c3c2CCC(=O)N3Cc2ccccc2)S1 (centres unmarked) [Example 31, 5-(1-benzyl-8-hydroxy-2-oxo-1,2,3,4-tetrahydroquinolin-5-ylmethyl)thiazolidine-2,4-dione]",213.2 to 213.7 °C
2,CCNC(=O)Nc1ccc(CN2C(=O)CCc3c(CC4SC(=O)NC4=O)ccc(OC)c32)cc1 (centres unmarked) [Example 227],195.7 to 196.9 °C
3,"CCCCCOC(=O)Nc1ccc(CN2C(=O)CCc3c(CC4SC(=O)NC4=O)ccc(OC)c32)cc1 (centres unmarked) [Example 23, 5-[1-(4-pentyloxycarbonylaminobenzyl)-8-methoxy-2-oxo-1,2,3,4-tetrahydroquinolin-5-ylmethyl]thiazolidine-2,4-dione]",98 to 102 °C
4,CN1C(=O)SC(Cc2cc(=O)n(C)c3ccccc23)C1=O (centres unmarked) [Example 113],143 to 145 °C
5,COc1ccc(CC2SC(=O)NC2=O)c2c1N(Cc1ccc(NC(C)=O)cc1)C(=O)CC2 (centres unmarked) [Example 229],215.2 to 217.8 °C
6,"COc1ccc(CC2SC(=O)NC2=O)c2c1N(CC(=O)O)C(=O)CC2 (centres unmarked) [Example 34, 5-(1-carboxymethyl-8-methoxy-2-oxo-1,2,3,4-tetrahydroquinolin-5-ylmethyl)thiazolidine-2,4-dione]",251 to 255 °C
7,COc1ccc(CC2SC(=O)NC2=O)c2c1N(C)C(=O)CC2 (centres unmarked) [Example 145],204 to 208 °C
8,O=C1NC(=O)C(Cc2cc(=O)[nH]c3ccccc23)S1 (centres unmarked) [Example 111],290 to 291 °C
9,"O=C1NC(=O)C(Cc2cc3ccccc3n(Cc3ccc(-c4ccccc4)cc3)c2=O)S1 (centres unmarked) [Example 17, 5-[1-(Biphenyl-4-ylmethyl)-2-oxo-1,2-dihydroquinolin-3-ylmethyl]thiazolidine-2,4-dione]",220.4 to 221.8 °C
10,COc1ccc(CC2SC(=O)NC2=O)c2c1NC(=O)CC2 (centres unmarked) [Example 146],253 to 256 °C
11,CCC(=O)Nc1ccc(CN2C(=O)CCc3c(CC4SC(=O)NC4=O)ccc(OC)c32)cc1 (centres unmarked) [Example 228],198.3 to 200.3 °C
12,"O=C1NC(=S)SC1Cc1cccc2c1CCC(=O)N2Cc1ccc(Br)cc1 (centres unmarked) [Example 47, 1-(4-bromobenzyl)-5-(4-oxo-2-thioxothiazolidin-5-ylmethyl)-3,4-dihydro-1H-quinolin-2-one]",191.3 to 192.1 °C
13,"COc1ccc(CC2SC(=O)NC2=O)c2c1N(Cc1ccc([N+](=O)[O-])cc1)C(=O)CC2 (centres unmarked) [Example 20, 5-[8-methoxy-1-(4-nitrobenzyl)-2-oxo-1,2,3,4-tetrahydroquinolin-5-ylmethyl]thiazolidine-2,4-dione]",246.5 to 246.6 °C
14,"COc1ccc(CCC2SC(=O)NC2=O)c2ccc(=O)n(C)c12 (centres unmarked) [Example 2, 5-[2-(8-methoxy-1-methyl-2-oxo-1,2-dihydroquinolin-5-yl)ethyl]thiazolidine-2,4-dione]",222 to 224 °C
15,COc1ccc(CC2SC(=O)NC2=O)c2c1N(Cc1ccc(NC(=O)c3cccnc3)cc1)C(=O)CC2 (centres unmarked) [Example 231],233 to 234.2 °C
16,Cl.O=C1NC(=S)SC1Cc1cccc2c1CCC(=O)N2Cc1ccc(Cl)nc1 (centres unmarked),70 to 80 °C
17,"COc1ccc(CC2SC(=O)NC2=O)c2c1N(Cc1ccc(C(=O)Nc3ccc(C(C)C)cc3)cc1)C(=O)CC2 (centres unmarked) [Example 27, 5-{1-[4-(4-isopropylphenylaminocarbonyl)benzyl]-8-methoxy-2-oxo-1,2,3,4-tetrahydroquinolin-5-ylmethyl}thiazolidine-2,4-dione]",243 to 244 °C
18,"O=C1NC(=O)C(Cc2ccc3c(c2)N(Cc2ccc(-c4ccccc4)cc2)C(=O)CC3)S1 (centres unmarked) [Example 18, 5-[1-(Biphenyl-4-ylmethyl)-2-oxo-1,2,3,4-tetrahydroquinolin-7-ylmethyl]thiazolidine-2,4-dione]",213.2 to 213.7 °C
19,"O=C1NC(=S)SC1Cc1cccc2c1CCC(=O)N2Cc1ccc(-c2ccccc2)cc1 (centres unmarked) [Example 46, 1-(biphenyl-4-ylmethyl)-5-(4-oxo-2-thioxothiazolidin-5-ylmethyl)-3,4-dihydro-1H-quinolin-2-one]",186.3 to 187.1 °C
20,"COc1ccc(C=C2SC(=O)N(C)C2=O)c2ccc(=O)n(C)c12 [Example 10, 5-[1-(8-Methoxy-1-methyl-2-oxo-1,2-dihydroquinolin-5-yl)methylidene]-3-methylthiazolidine-2,4-dione]",270 °C (dec.)
21,CC(=O)N1CCC(CCN2C(=O)CCc3c(CC4SC(=O)NC4=O)cccc32)CC1 (centres unmarked) [Example 614],209.5 to 211 °C
22,Cn1c(=O)cc(CC2SC(=O)NC2=O)c2ccccc21 (centres unmarked) [Example 112],246 to 248 °C
23,COC(=O)Nc1ccc(CN2C(=O)CCc3c(CC4SC(=O)NC4=O)ccc(OC)c32)cc1 (centres unmarked) [Example 230],136.3 to 138.6 °C
24,CCN1C(=O)CCc2c(CC3SC(=O)NC3=O)ccc(OC)c21 (centres unmarked) [Example 147],179 to 181 °C
25,"COC(=O)CN1C(=O)SC(Cc2ccc(OC)c3c2ccc(=O)n3C)C1=O (centres unmarked) [Example 43, 3-methoxycarbonylmethyl-5-(8-methoxy-1-methyl-2-oxo-1,2-dihydroquinolin-5-ylmethyl)thiazolidine-2,4-dione]",182 to 184 °C
26,"COc1ccc(CCCC2SC(=O)NC2=O)c2ccc(=O)n(C)c12 (centres unmarked) [Example 3, 5-[3-(8-methoxy-1-methyl-2-oxo-1,2-dihydroquinolin-5-yl)propyl]thiazolidine-2,4-dione]",172 to 175 °C
27,"COc1ccc(C2SC(=O)NC2=O)c2ccc(=O)n(C)c12 (centres unmarked) [Example 4, 5-(8-methoxy-1-methyl-2-oxo-1,2-dihydroquinolin-5-yl)thiazolidine-2,4-dione]",255 °C (dec.)
28,"COc1ccc(C=C2SC(=O)NC2=O)c2ccc(=O)n(C)c12 [Example 9, 5-[1-(8-Methoxy-1-methyl-2-oxo-1,2-dihydroquinolin-5-yl)methylidene]thiazolidine-2,4-dione]",≥ 300 °C
29,"COc1ccc(CC2SC(=O)NC2=O)c2c1N(Cc1ccc(N)cc1)C(=O)CC2 (centres unmarked) [Example 21, 5-[1-(4-aminobenzyl)-8-methoxy-2-oxo-1,2,3,4-tetrahydroquinolin-5-ylmethyl]thiazolidine-2,4-dione]",174.1 to 174.8 °C
30,"O=C1NC(=O)C(Cc2cc(=O)n(Cc3ccc(Cl)cc3)c3ccccc23)S1 (centres unmarked) [Example 14, 5-[1-(4-chlorobenzyl)-2-oxo-1,2-dihydroquinolin-4-ylmethyl]thiazolidine-2,4-dione]",142.1 to 143.7 °C
